# Data as given in article PMC6820105, “Data on synthesis, ADME and pharmacological properties and early safety pharmacology evaluation of a series of novel NURR1/NOT agonist potentially useful for the treatment of Parkinson's disease” (Data in Brief, 2019).
# Where two headings read alike, the source gives them in different places.
# Tests used:
# [1] = system: anesthetized mongrel dogs; experiment: Hemodynamic, electrocardiographic and electrophysiological effects in anesthetized mongrel dogs; type: in vivo; details: dog, 10 mg/kg single 5-min i.v. infusion, monitored up to 60 min, n = 3
# Procedure: Six fasted adult mongrel dogs (weighing 18–26 kg) were anesthetized with 20 mg/kg sodium thiopental i.v. Animals were artificially ventilated with a gaseous mixture composed of O^2/air supplemented with around 1.5% end-tidal fraction of isoflurane. Tidal volume and respiratory rate was set at 20 mL/kg and 16 breaths/min. Arterial blood gas was controlled and respiratory adjusted to maintain pH between 7.36 and 7.44, PaO^2 > 80 mmHg and PaCO^2 < 40 mmHg. Four limbs electrodes were positioned to obtain a surface ECG. Two bipolar electrodes were positioned in the right atrium via a jugular access, one to record the atrial electrogram and the second one to stimulate the atrium. A bipolar electrode and a quadripolar electrode were inserted via venous and arterial femoral access and positioned in the right ventricular apex and in the His bundle region, respectively. These electrodes were connected to a programmable stimulator and to a computerized physiograph system. […]
# The auricular diastolic stimulation threshold was evaluated with rectangular current pulse (2 ms duration) increased in steps of 0.1 mA and delivered at fixed rate pacing (S1S1) of 400 or 350 ms in function of animal basal cycle length. […]
# [2] = Plasma and heart concentrations after 5-min i.v. administration in anesthetized mongrel dogs; type: in vivo; details: iv, dog, 10 mg/kg 5-min i.v.
# Procedure: Cpd 38 was dissolved in a 75% PEG400 aqueous solution and administered to dogs (n = 3) at 10 mg/kg as a single 5-min intravenous infusion under a volume of 0.5 mL/kg. Control animals (n = 3) received the vehicle only, under the same experimental conditions.
# Blood samples were drawn from a femoral artery at 10 and 60 minutes after the beginning of the drug perfusion and after centrifugation plasma samples were stored frozen at −20 °C until analysis.
# At the end of the experiment (around 60 minutes following the beginning of the drug perfusion), the heart was removed and a few grams of tissue were collected from right and left ventricles stored frozen at - 20 °C until analysis.
# Analysis of samples was performed using an exploratory LC-MS-MS assay method. Plasma (LOQ of 2 ng/mL) and tissue (LOQ of 3 ng/g) concentrations of Cpd 38 were determined.
# [3] = system: anesthetized male Hartley guinea pigs; experiment: Hemodynamic and electrocardiographic effects in anesthetized male Hartley guinea pigs; type: in vivo; details: guinea pig, 10 mg/kg single 5-min i.v. infusion, monitored up to 30 min, n = 6
# Procedure: Male Hartley guinea pigs (weighing 400–500 g) were anesthetized with 35 mg/kg sodium pentobarbital i.p. and let under spontaneous breathing conditions. The body temperature was maintained at 37.5 ± 0.5 °C throughout the experiment. For implantation of vascular catheters, cutaneous incision, subcutaneous and muscular dissections were performed after application of local anesthetic (lidocain, 20 mg/kg). A carotid artery and a jugular vein were catheterized to allow recording of arterial blood pressure and intravenous administration of the drug, respectively. The arterial micromanometer catheter was connected to a pressure transducer. For the electrocardiogram recording, five electrodes were inserted in the subcutaneous layer of fore- and hind-limb. The pressure transducer and ECG electrodes were linked to Gould pre-amplifiers. The amplifiers were connected to a Notocord-Hem computerized data acquisition system and recorded at a sampling rate of 1000 Hz. Either lead I or lead II were recorded, depending on which the better separation of T wave from P wave of the next complex was achieved.
# Cpd 38 was dissolved in a 75% PEG400 aqueous solution and administered to guinea pigs (n = 6) at 10 mg/kg as a single 5-min intravenous infusion under a volume of 0.5 mL/kg. Control animals (n = 10) received the vehicle only, under the same experimental conditions. […]
# [4] = Plasma and heart concentrations after 5-min i.v. administration in anesthetized male Hartley guinea pigs; type: in vivo; details: iv, guinea pig, 10 mg/kg 5-min i.v.
# Procedure: Cpd 38 was dissolved in a 75% PEG400 aqueous solution and administered to guinea pigs (n = 6) at 10 mg/kg as a single 5-min intravenous infusion under a volume of 0.5 mL/kg. Control animals (n = 10) received the vehicle only, under the same experimental conditions.
# Blood samples were drawn from a carotid artery at 10 and 30 minutes after the beginning of the drug perfusion and after centrifugation plasma samples were stored frozen until analysis.
# At the end of the experiment (around 30 minutes following the beginning of the drug perfusion), the heart was removed and a few grams of tissue were collected from right and left ventricles stored frozen at - 20 °C until analysis.
# Analysis of samples was performed using an exploratory LC-MS-MS assay method. Plasma (LOQ of 2 ng/mL) and tissue (LOQ of 10 ng/g) concentrations of Cpd 38 (expressed as active ingredient).were determined.
# [5] = molecular target: NURR1/NOT nuclear receptor (Homo sapiens, UniProt P43354); experiment: Gal4 reporter gene assay (EC50 / Emax Gal4); type: cell-based; details: for Emax Gal4: Table 1
# NURR1/NOT nuclear receptor, sequence (P43354 whole entry, the tested form may be a part): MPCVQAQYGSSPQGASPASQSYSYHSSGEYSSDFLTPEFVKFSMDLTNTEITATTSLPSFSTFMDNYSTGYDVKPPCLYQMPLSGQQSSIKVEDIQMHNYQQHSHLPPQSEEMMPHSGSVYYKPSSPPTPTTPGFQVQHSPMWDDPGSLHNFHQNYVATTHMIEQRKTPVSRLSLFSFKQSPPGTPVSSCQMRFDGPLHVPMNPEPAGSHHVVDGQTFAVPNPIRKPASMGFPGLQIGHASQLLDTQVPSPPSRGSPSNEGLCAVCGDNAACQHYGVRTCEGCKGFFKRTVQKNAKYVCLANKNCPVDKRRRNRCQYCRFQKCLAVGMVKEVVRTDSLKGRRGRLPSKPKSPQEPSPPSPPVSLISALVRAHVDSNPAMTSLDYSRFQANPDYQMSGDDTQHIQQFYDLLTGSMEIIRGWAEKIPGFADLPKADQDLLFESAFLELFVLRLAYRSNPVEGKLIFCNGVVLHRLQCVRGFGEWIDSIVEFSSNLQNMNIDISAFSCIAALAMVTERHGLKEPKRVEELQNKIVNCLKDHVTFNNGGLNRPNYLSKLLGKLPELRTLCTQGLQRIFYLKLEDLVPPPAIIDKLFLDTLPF
# [6] = heart (right and left ventricles), read-out: Heart concentration
# [7] = plasma, mean ± SD, n = 3, read-out: Total plasma concentration
# [8] = plasma, read-out: Total plasma concentration
# [9] = plasma, mean ± SD, n = 6, read-out: Total plasma concentration
# [10] = Table 1, replacements of the hydroxymethyl of cpd 4, read-out: EC50 Gal4
smiles,measurement,setting,value
"CC(C)(O)c1cccc(-c2ccc3nc(-c4ccc(Cl)cc4)cn3c2)c1 [Cpd 38, 2-(3-[2-(4-Chlorophenyl)imidazo[1,2-a]pyridin-6-yl]phenyl)propan-2-ol]","Hemodynamic, ECG and electrophysiological effects",[1],"No major hemodynamic, ECG and electrophysiological effects were observed"
same,concentration at 60 min,"[2]; heart (right and left ventricles), mean ± SD, n = 3, read-out: Heart concentration",14600 ± 2700 ng/g
same,concentration at 60 min,[2]; [6],40.2 µM
same,concentration at 10 min,[2]; [7],23400 ± 2830 ng/mL
same,concentration at 10 min,[2]; [8],64.5 µM
same,concentration at 60 min,[2]; [7],10100 ± 769 ng/mL
same,concentration at 60 min,[2]; [8],27.8 µM
same,Hemodynamic and ECG effects,[3],No major hemodynamic and ECG effects were observed
same,concentration at 30 min,"[4]; heart (right and left ventricles), mean ± SD, n = 6, read-out: Heart concentration",6010 ± 964 ng/g
same,concentration at 30 min,[4]; [6],16.6 µM
same,concentration at 10 min,[4]; [9],4660 ± 1350 ng/mL
same,concentration at 10 min,[4]; [8],12.8 µM
same,concentration at 30 min,[4]; [9],2570 ± 533 ng/mL
same,concentration at 30 min,[4]; [8],7.1 µM
"OC1(c2cccc(-c3ccc4nc(-c5ccc(Cl)cc5)cn4c3)c2)CCOCC1 [Cpd 40, 4-(3-(2-(4-chlorophenyl)imidazo[1,2-a]pyridin-6-yl)phenyl)tetrahydro-2H-pyran-4-ol]",melting point,,224 to 225 °C
"CC(O)(CO)c1cccc(-c2ccc3nc(-c4ccc(Cl)cc4)cn3c2)c1 (stereo not drawn) [Cpd 41, 2-(3-(2-(4-chlorophenyl)imidazo[1,2-a]pyridin-6-yl)phenyl)propane-1,2-diol]",melting point,,192 to 194 °C
"Cc1cccc(-c2ccc3nc(-c4ccc(Cl)cc4)cn3c2)c1 [Cpd S1, 2-(4-Chlorophenyl)-6-(m-tolyl)imidazo[1,2-a]pyridine]",melting point,,145 to 147 °C
"COCc1cccc(-c2ccc3nc(-c4ccc(Cl)cc4)cn3c2)c1 [Cpd S2, 2-(4-Chlorophenyl)-6-(3-(methoxymethyl)phenyl)imidazo[1,2-a]pyridine]",melting point,,135 to 137 °C
"CN(C)Cc1cccc(-c2ccc3nc(-c4ccc(Cl)cc4)cn3c2)c1 [Cpd S3, 1-(3-(2-(4-chlorophenyl)imidazo[1,2-a]pyridin-6-yl)phenyl)-N,N-dimethylmethanamine]",melting point,,290 to 292 °C
"Clc1ccc(-c2cn3cc(-c4cccc(CN5CCCC5)c4)ccc3n2)cc1 [Cpd S4, 1-(3-(2-(4-chlorophenyl)imidazo[1,2-a]pyridin-6-yl)phenyl)-N-pyrolidine]",EC50,[5]; [10],> 3 µM
"Clc1ccc(-c2cn3cc(-c4cccc(CN5CCOCC5)c4)ccc3n2)cc1 [Cpd S5, 1-(3-(2-(4-chlorophenyl)imidazo[1,2-a]pyridin-6-yl)phenyl)-N-morpholine]",EC50,[5]; [10],> 3 µM
"NC(=O)c1cccc(-c2ccc3nc(-c4ccc(Cl)cc4)cn3c2)c1 [Cpd S7, 3-(2-(4-chlorophenyl)imidazo[1,2-a]pyridin-6-yl)benzamide]",melting point,,246 to 248 °C
same,Emax Gal4,[5],210 ± 5
same,EC50,[5]; [10],1.58 ± 0.035 µM
"CNC(=O)c1cccc(-c2ccc3nc(-c4ccc(Cl)cc4)cn3c2)c1 [Cpd S8, 3-(2-(4-chlorophenyl)imidazo[1,2-a]pyridin-6-yl)-N-methylbenzamide]",melting point,,225 to 227 °C
same,Emax Gal4,[5],226 ± 66
same,EC50,[5]; [10],0.087 ± 0.028 µM
"CCN(CC)C(=O)c1cccc(-c2ccc3nc(-c4ccc(Cl)cc4)cn3c2)c1 [Cpd S9, 3-(2-(4-chlorophenyl)imidazo[1,2-a]pyridin-6-yl)-N,N-diethylbenzamide]",melting point,,162 to 164 °C
"N#Cc1cccc(-c2ccc3nc(-c4ccc(Cl)cc4)cn3c2)c1 [Cpd S10, 3-(2-(4-chlorophenyl)imidazo[1,2-a]pyridin-6-yl)benzonitrile]",melting point,,195 to 197 °C
"CC(C)CC(O)c1cccc(-c2ccc3nc(-c4ccc(Cl)cc4)cn3c2)c1 (stereo not drawn) [Cpd S15, 1-(3-(2-(4-chlorophenyl)imidazo[1,2-a]pyridin-6-yl)phenyl)-3-methylbutan-1-ol]",EC50,"[5]; Table 2, alkyl or aryl groups on the carbinol, read-out: EC50 Gal4 t",> 3 µM
